Source: patent US20090298073A1, “Kidney Toxicity Biomarkers” (priority 2006, published 2009)

How the values were obtained:
Assay type in all cases: in vivo, rat
[1] = system: male rats; assay: ELISA of urinary Tamm Horsfall protein (THP) in rats treated with kidney toxicants; conditions: urine
Protocol: (§1) The biomarkers of the present invention can be measured in blood or urine during testing of a novel therapeutic compound. […] ELISA antibody assays are used to evaluate changes in protein levels.
(§2) Antibodies were purchased or made and ELISA assays were performed to measure the levels of four Kidney Toxicity Biomarker proteins in urine. The proteins are TFF3; Tarnm Horsfall protein (THP); neutrophil gelatinase-associated lipocalin (NGAL) and albumin.

[2] = system: male rats; assay: ELISA of urinary TFF3 in rats treated with kidney toxicants; conditions: urine
Protocol: as §1, §2

[3] = system: male rats; assay: ELISA of urinary albumin in rats treated with kidney toxicants; conditions: urine
Protocol: as §1, §2

[4] = system: male rats; assay: ELISA of urinary NGAL in rats treated with kidney toxicants; conditions: urine
Protocol: as §1, §2

[5] = system: male rats; assay: Histopathologically-assessed kidney toxicity in rats
[6] = gentamicin 20 mg/Kg/Day, Day 15
[7] = gentamicin 80 mg/Kg/Day, Day 15
[8] = gentamicin 240 mg/Kg/Day, Day 3
[9] = gentamicin 240 mg/Kg/Day, Day 9
[10] = gentamicin 240 mg/Kg/Day, Day 12

Substance: Gentamicin
- THP ([1]; gentamicin 20 mg/Kg/Day, Day 3): 4.1 µg/mL
- THP ([1]; gentamicin 20 mg/Kg/Day, Day 9): 4.5 µg/mL
- THP [1, 6]: 4.4 µg/mL
- THP ([1]; gentamicin 80 mg/Kg/Day, Day 3): 3.4 µg/mL
- THP ([1]; gentamicin 80 mg/Kg/Day, Day 9): 3.1 µg/mL
- THP [1, 7]: 3.9 µg/mL
- THP [1, 8]: 3.2 µg/mL
- THP [1, 9]: 1.3 µg/mL
- THP [1, 10]: 1.9 µg/mL
- TFF3 ([2]; gentamicin 20 mg/Kg/Day, Day 3): 634 ng/mL
- TFF3 ([2]; gentamicin 20 mg/Kg/Day, Day 9): 202 ng/mL
- TFF3 [2, 6]: 265 ng/mL
- TFF3 ([2]; gentamicin 80 mg/Kg/Day, Day 3): 280 ng/mL
- TFF3 ([2]; gentamicin 80 mg/Kg/Day, Day 9): 121 ng/mL
- TFF3 [2, 7]: 69 ng/mL
- TFF3 [2, 8]: 132 ng/mL
- TFF3 [2, 9]: 1.3 ng/mL
- TFF3 [2, 10]: 29 ng/mL
- Albumin ([3]; gentamicin 20 mg/Kg/Day, Day 3): 14 µg/mL
- Albumin ([3]; gentamicin 20 mg/Kg/Day, Day 9): 7 µg/mL
- Albumin [3, 6]: 13 µg/mL
- Albumin ([3]; gentamicin 80 mg/Kg/Day, Day 3): 221 µg/mL
- Albumin ([3]; gentamicin 80 mg/Kg/Day, Day 9): 190 µg/mL
- Albumin [3, 7]: 22 µg/mL
- Albumin [3, 8]: 129 µg/mL
- Albumin [3, 9]: 534 µg/mL
- Albumin [3, 10]: 502 µg/mL
- NGAL ([4]; gentamicin 20 mg/Kg/Day, Day 3): 14 µg/mL
- NGAL ([4]; gentamicin 20 mg/Kg/Day, Day 9): 15 µg/mL
- NGAL [4, 6]: 15 µg/mL
- NGAL ([4]; gentamicin 80 mg/Kg/Day, Day 3): 13 µg/mL
- NGAL ([4]; gentamicin 80 mg/Kg/Day, Day 9): 14 µg/mL
- NGAL [4, 7]: 20 µg/mL
- NGAL [4, 8]: 17 µg/mL
- NGAL [4, 9]: 13 µg/mL
- NGAL [4, 10]: 25 µg/mL
- Histopathology Score [5, 6]: <1
- Histopathology Score ([5]; gentamicin 80 mg/Kg/Day, Day 3): <1
- Histopathology Score [5, 7]: 2
- Histopathology Score [5, 8]: <1
- Histopathology Score [5, 9]: 4
- Histopathology Score [5, 10]: 5
